We go through 22 molecules from patent publication US10647713B2 (Nimbus Lakshmi, Inc., priority 2016, dated 2020).

Where only a bound is given, the exact number is not on record here.

human TYK2 (JH2domain-pseudokinase), sequence (P29597 556-888): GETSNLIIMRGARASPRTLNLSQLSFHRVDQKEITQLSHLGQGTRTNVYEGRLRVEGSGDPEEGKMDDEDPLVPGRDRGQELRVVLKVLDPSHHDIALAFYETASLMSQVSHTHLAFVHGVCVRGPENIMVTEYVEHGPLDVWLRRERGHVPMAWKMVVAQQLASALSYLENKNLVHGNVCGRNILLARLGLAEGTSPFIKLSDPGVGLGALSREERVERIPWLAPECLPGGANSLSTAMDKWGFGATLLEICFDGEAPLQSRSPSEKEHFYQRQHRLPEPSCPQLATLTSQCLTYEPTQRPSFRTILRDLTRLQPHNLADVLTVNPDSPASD

The assay addresses human TYK2 (JH2domain-pseudokinase) (Homo sapiens (Human), UniProt P29597). In words: TYK2 JH2 Domain Binding Assay (KINOMEscan, DiscoveRx). The note with it: 11-point dilution, duplicate. Summed up: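 TYK2 JH2 (G556–D888)–NFkB DBD fusion, DNA-tagged, from HEK293 extracts (<0.1 nM) competed against immobilised biotinylated ligand for 1 h at room temperature, 0.9% DMSO. Bead-retained kinase quantified by qPCR; Kd from 11-point 3-fold series (top 30,000 nM, duplicate), Hill fit with slope −1.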
For `COc1c(Nc2cc(Nc3ccc(C)nn3)nc3[nH]c(C)nc23)cccc1-c1nnn(C)n1` [I-100, N-7-(2-methoxy-3-(2-methyl-2H-tetrazol-5-yl)phenyl)-2-methyl-N5-(6-methylpyridazin-3-yl)-3H-imidazo[4,5-b]pyridine-5,7-diamine], the Kd was 0.1 to 0.5 nM.

In the case of `COc1c(Nc2cc(Nc3ccc(C)cn3)nc3[nH]c(C)nc23)cccc1-c1nnn(C)n1` [I-101, N7-(2-methoxy-3-(2-methyl-2H-tetrazol-5-yl)phenyl)-2-methyl-N5-(5-methylpyridin-2-yl)-3H-imidazo[4,5-b]pyridine-5,7-diamine], the Kd lay within 1 to 10 nM.

In turn, `COc1c(Cl)cccc1Nc1cc(NC(=O)C2CC2)nc2[nH]c(C)nc12` [I-103, N-(7-((3-chloro-2-methoxyphenyl)amino)-2-methyl-3H-imidazo[4,5-b]pyridin-5-yl)cyclopropanecarboxamide] yielded a Kd above 10 nM.

As to `COc1c(F)cccc1Nc1cc(NC(=O)C2CC2)nc2[nH]c(C)nc12` [I-104, N-(7-((3-fluoro-2-methoxyphenyl)amino)-2-methyl-3H-imidazo[4,5-b]pyridin-5-yl)cyclopropanecarboxamide], the Kd is above 10 nM.

In the case of `COc1c(C#N)cccc1Nc1cc(NC(=O)C2CC2)nc2[nH]c(C)nc12` [I-105, N-(7-((3-cyano-2-methoxyphenyl)amino)-2-methyl-3H-imidazo[4,5-b]pyridin-5-yl)cyclopropanecarboxamide], the Kd is above 10 nM.

On to `COc1ccccc1Nc1cc(NC(=O)C2CC2)nc2[nH]c(C)nc12` [I-106, N-(7-((2-methoxyphenyl)amino)-2-methyl-3H-imidazo[4,5-b]pyridin-5-yl)cyclopropanecarboxamide], for which the Kd was above 10 nM.

`COc1c(Nc2cc(NC(=O)C3CC3)nc3[nH]c(C)nc23)cccc1-c1cnn(C)c1` [I-107, N-(7-((2-methoxy-3-(1-methyl-1H-pyrazol-4-yl)phenyl)amino)-2-methyl-3H-imidazo[4,5-b]pyridin-5-yl)cyclopropanecarboxamide] displayed a Kd of 1 to 10 nM.

As for `COc1c(Nc2cc(Nc3ccc(C(=O)N4CCCC4)c(C(F)(F)F)n3)nc3[nH]c(C)nc23)cccc1-c1nnn(C)n1` [I-108, (6-((7-((2-methoxy-3-(2-methyl-2H-tetrazol-5-yl)phenyl)amino)-2-methyl-3H-imidazo[4,5-b]pyridin-5-yl)amino)-2-(trifluoromethyl)pyridin-3-yl)(pyrrolidin-1-yl)methanone], the Kd lay in the range of 0.1 to 0.5 nM.

`COc1c(Nc2cc(Nc3ccc(N4CCCC4=O)c(C#N)n3)nc3[nH]c(C)nc23)cccc1-c1nnn(C)n1` [I-109, 6-((7-((2-methoxy-3-(2-methyl-2H-tetrazol-5-yl)phenyl)amino)-2-methyl-3H-imidazo[4,5-b]pyridin-5-yl)amino)-3-(2-oxopyrrolidin-1-yl)picolinonitrile] came in with a Kd of 0.1 to 0.5 nM.

Take `COc1cc(C(=O)N2CCCC2)ccc1Nc1cc(NC(=O)C2CC2)nc2[nH]c(C)nc12` [I-110, N-(7-((2-methoxy-4-(pyrrolidine-1-carbonyl)phenyl)amino)-2-methyl-3H-imidazo[4,5-b]pyridin-5-yl)cyclopropanecarboxamide]: the Kd was in the range of 1 to 10 nM.

In turn, `COc1c(Nc2cc(Nc3cnc(C)c(C#N)n3)nc3[nH]c(C)nc23)cccc1-c1nnn(C)n1` [I-111, 6-((7-((2-methoxy-3-(2-methyl-2H-tetrazol-5-yl)phenyl)amino)-2-methyl-3H-imidazo[4,5-b]pyridin-5-yl)amino)-3-methylpyrazine-2-carbonitrile] came in with a Kd of 1 to 10 nM.

`COc1c(Nc2cc(Nc3ccc(N4CC[C@H](OC)C4)c(C#N)n3)nc3[nH]c(C)nc23)cccc1-c1nnn(C)n1` [I-112, (S)-6-((7-((2-methoxy-3-(2-methyl-2H-tetrazol-5-yl)phenyl)amino)-2-methyl-3H-imidazo[4,5-b]pyridin-5-yl)amino)-3-(3-methoxypyrrolidin-1-yl)picolinonitrile]: the Kd is 0.1 to 0.5 nM.

As to `COc1c(Nc2cc(Nc3ccc(N4CCC4)c(C#N)n3)nc3[nH]c(C)nc23)cccc1-c1nnn(C)n1` [I-113, 3-(azetidin-1-yl)-6-((7-((2-methoxy-3-(2-methyl-2H-tetrazol-5-yl)phenyl)amino)-2-methyl-3H-imidazo[4,5-b]pyridin-5-yl)amino)picolinonitrile], the Kd is 0.1 to 0.5 nM.

As for `COc1c(Nc2cc(NC(=O)C3CC3)nc3[nH]c(C)nc23)cccc1-c1nc(C)nn1C` [I-114, N-(7-((3-(1,3-dimethyl-1H-1,2,4-triazol-5-yl)-2-methoxyphenyl)amino)-2-methyl-3H-imidazo[4,5-b]pyridin-5-yl)cyclopropanecarboxamide], the Kd lay within 1 to 10 nM.

`COc1c(Nc2cc(Nc3ccc(C(C)C)c(C#N)n3)nc3[nH]c(C)nc23)cccc1-c1nnn(C)n1` [I-115, 3-isopropyl-6-((7-((2-methoxy-3-(2-methyl-2H-tetrazol-5-yl)phenyl)amino)-2-methyl-3H-imidazo[4,5-b]pyridin-5-yl)amino)picolinonitrile] returned a Kd of 1 to 10 nM.

In turn, `COc1c(Nc2cc(Nc3cnc(N4CCOCC4)c(C#N)n3)nc3[nH]c(C)nc23)cccc1-c1nnn(C)n1` [I-116, 6-((7-((2-methoxy-3-(2-methyl-2H-tetrazol-5-yl)phenyl)amino)-2-methyl-3H-imidazo[4,5-b]pyridin-5-yl)amino)-3-morpholinopyrazine-2-carbonitrile] gave a Kd of 1 to 10 nM.

For the molecule `COc1c(Nc2cc(Nc3cnc(N4CC[C@@H](OC)C4)c(C#N)n3)nc3[nH]c(C)nc23)cccc1-c1nnn(C)n1` [I-117, (R)-6-((7-((2-methoxy-3-(2-methyl-2H-tetrazol-5-yl)phenyl)amino)-2-methyl-3H-imidazo[4,5-b]pyridin-5-yl)amino)-3-(3-methoxypyrrolidin-1-yl)pyrazine-2-carbonitrile], the Kd was 1 to 10 nM.

`Cc1ccc(Nc2cc(Nc3ccccc3N(C)S(C)(=O)=O)c3nc(C)[nH]c3n2)nn1` [I-118, N-methyl-N-(2-((2-methyl-5-((6-methylpyridazin-3-yl)amino)-3H-imidazo[4,5-b]pyridin-7-yl)amino)phenyl)methanesulfonamide] yielded a Kd of 0.1 to 0.5 nM.

The molecule `Cc1nc2c(Nc3ccccc3N(C)S(C)(=O)=O)cc(Nc3cccc(C#N)n3)nc2[nH]1` [I-120, N-(2-((5-((6-cyanopyridin-2-yl)amino)-2-methyl-3H-imidazo[4,5-b]pyridin-7-yl)amino)phenyl)-N-methylmethanesulfonamide] registered a Kd below 0.1 nM.

`COC1CN(c2ccc(Nc3cc(NC(=O)C4CC4)nc4[nH]c(C)nc34)c(N(C)S(C)(=O)=O)c2)C1` [I-122, N-(7-((4-(3-methoxyazetidin-1-yl)-2-(N-methylmethylsulfonamido)phenyl)amino)-2-methyl-3H-imidazo[4,5-b]pyridin-5-yl)cyclopropanecarboxamide] gave a Kd of 1 to 10 nM.

In turn, `Cc1nc2c(Nc3ccccc3N(C)S(C)(=O)=O)cc(Nc3cnc(C)c(C)n3)nc2[nH]1` [I-123, N-(2-((5-((5,6-dimethylpyrazin-2-yl)amino)-2-methyl-3H-imidazo[4,5-b]pyridin-7-yl)amino)phenyl)-N-methylmethanesulfonamide] gave a Kd of 0.1 to 0.5 nM.

Take `Cc1cc(Nc2cc(Nc3ccccc3N(C)S(C)(=O)=O)c3nc(C)[nH]c3n2)nc(C)n1` [I-124, N-(2-((5-((2,6-dimethylpyrimidin-4-yl)amino)-2-methyl-3H-imidazo[4,5-b]-pyridin-7-yl)amino)phenyl)-N-methylmethanesulfonamide]: the Kd lay within 0.1 to 0.5 nM.

The Kd is a measure of binding affinity in units of concentration. A higher Kd goes with weaker binding.
